{"source": "patent US6613901B2", "about": "“2-aminoalkylaminoquinolines as dopamine D4 ligands” (Neurogen Corporation, priority 1998, dated 2003)", "key": {"[1]": {"target": "T1, D2 receptors (Chlorocebus aethiops, UniProt P52702)", "T1 construct": "expressed in transfected cells; host or cells: COS cells", "T1 sequence (P52702 whole entry)": "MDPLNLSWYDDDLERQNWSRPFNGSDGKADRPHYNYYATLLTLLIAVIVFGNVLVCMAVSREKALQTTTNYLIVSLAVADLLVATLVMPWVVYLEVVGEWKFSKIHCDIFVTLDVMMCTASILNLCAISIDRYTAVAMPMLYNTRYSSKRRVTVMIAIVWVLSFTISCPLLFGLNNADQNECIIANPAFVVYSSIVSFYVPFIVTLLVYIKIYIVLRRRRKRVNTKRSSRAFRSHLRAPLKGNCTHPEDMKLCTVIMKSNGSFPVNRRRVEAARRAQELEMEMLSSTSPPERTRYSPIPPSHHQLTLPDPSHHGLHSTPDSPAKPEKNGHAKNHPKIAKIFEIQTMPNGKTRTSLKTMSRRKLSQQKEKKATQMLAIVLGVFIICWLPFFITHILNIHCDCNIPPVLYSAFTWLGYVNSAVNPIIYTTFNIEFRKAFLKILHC", "assay": "D2 receptor binding assay (3H-YM 09151-2)", "set-up": "species or system African Green monkey", "conditions": "Table 1; COS cell pellets with recombinant receptor, 0.5 nM 3H-YM 09151-2", "method": "(§1) Assay for D2 and D4 Receptor Binding Activity\n(§2) Pellets of COS cells containing recombinantly produced D2 or D4 receptors from African Green monkey were used for the assays. The sample is homogenized in 100 volumes (w/vol) of 0.05 M Tris HCl buffer at 4° C. and pH 7.4. The sample is then centrifuged at 30,000×g and resuspended and rehomogenized. The sample is then centrifuged as described and the final tissue sample is frozen until use. The tissue is resuspended 1:20 (wt/vol) in 0.05 M Tris HCl buffer containing 100 mM NaCl."}, "[2]": {"target": "D4 receptors (Chlorocebus aethiops, UniProt A0A0D9REG7)", "sequence (A0A0D9REG7 entry or part of it)": "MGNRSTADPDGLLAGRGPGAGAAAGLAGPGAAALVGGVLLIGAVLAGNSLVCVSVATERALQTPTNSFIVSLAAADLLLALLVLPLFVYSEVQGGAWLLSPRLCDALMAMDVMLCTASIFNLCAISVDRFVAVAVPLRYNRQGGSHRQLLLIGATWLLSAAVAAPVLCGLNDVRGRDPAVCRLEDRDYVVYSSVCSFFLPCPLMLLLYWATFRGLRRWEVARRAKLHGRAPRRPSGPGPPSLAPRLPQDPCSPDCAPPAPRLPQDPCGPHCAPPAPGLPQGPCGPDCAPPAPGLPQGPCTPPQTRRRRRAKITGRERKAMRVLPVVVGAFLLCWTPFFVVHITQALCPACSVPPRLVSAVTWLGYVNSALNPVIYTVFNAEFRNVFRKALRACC", "assay": "D4 receptor binding assay (3H-YM 09151-2)", "set-up": "species or system African Green monkey", "conditions": "Table 1; COS cell pellets with recombinant receptor, 0.5 nM 3H-YM 09151-2; read-out: D4 K1", "method": "as §1, §2"}, "[3]": {"target": "T2, M1 Muscarinic subtype (Homo sapiens, UniProt P11229)", "T2 sequence (P11229 1-460)": "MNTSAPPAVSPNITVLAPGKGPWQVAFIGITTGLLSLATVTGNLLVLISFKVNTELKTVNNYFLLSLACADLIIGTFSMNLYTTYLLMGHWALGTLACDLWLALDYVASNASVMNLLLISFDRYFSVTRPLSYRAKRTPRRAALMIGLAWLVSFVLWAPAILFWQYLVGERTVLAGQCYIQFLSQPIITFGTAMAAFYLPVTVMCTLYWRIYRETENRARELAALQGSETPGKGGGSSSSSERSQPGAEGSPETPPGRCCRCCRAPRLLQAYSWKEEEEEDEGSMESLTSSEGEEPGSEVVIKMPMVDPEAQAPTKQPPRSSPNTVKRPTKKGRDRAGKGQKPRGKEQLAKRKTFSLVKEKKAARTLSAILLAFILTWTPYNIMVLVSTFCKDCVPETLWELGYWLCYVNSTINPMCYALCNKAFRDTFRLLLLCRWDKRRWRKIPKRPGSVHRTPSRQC", "assay": "M1 Muscarinic subtype assay per U.S. Pat. No. 5,093,333", "type": "binding", "conditions": "Table 1"}, "[4]": {"target": "T3, M2 Muscarinic subtype (Homo sapiens, UniProt P08172)", "T3 sequence (P08172 1-466)": "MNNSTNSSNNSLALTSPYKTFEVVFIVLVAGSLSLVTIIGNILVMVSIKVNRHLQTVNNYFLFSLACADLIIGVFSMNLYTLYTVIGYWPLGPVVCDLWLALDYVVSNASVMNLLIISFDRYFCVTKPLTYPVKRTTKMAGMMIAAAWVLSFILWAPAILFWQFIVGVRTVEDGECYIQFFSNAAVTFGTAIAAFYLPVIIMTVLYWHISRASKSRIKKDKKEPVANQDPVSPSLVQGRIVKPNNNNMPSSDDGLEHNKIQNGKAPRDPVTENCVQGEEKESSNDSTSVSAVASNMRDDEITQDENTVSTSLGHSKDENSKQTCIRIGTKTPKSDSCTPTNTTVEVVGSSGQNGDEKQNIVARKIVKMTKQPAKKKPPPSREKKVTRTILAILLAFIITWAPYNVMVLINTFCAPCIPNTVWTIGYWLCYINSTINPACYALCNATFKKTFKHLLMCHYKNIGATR", "assay": "M2 Muscarinic subtype assay per U.S. Pat. No. 5,093,333", "type": "binding", "conditions": "Table 1"}}, "note": "Structures can show the parent of a compound that is named as a salt.", "data": [{"compound": "OC1(c2ccc(Cl)cc2)CCN(CCCNC2=Nc3ccccc3CC2)CC1", "note": "(as salt: hydrobromid)", "values": [{"measurement": "melting point", "result": "> 260", "unit": "°C"}]}, {"compound": "(3-(4-(2,3-dimethylphenyl)piperazinyl)propyl)-2-quinolylamine [Compound 21]", "values": [{"measurement": "Ki", "setting": "[1]", "result": "> 100", "unit": "nM"}, {"measurement": "Ki", "setting": "[2]", "result": 22, "unit": "nM"}]}, {"compound": "c1ccc(N2CCN(CCNC3=Nc4ccccc4CC3)CC2)nc1", "note": "[Compound 2, 2-3,4-dihydroquinolyl(2-(4-(2-pyridyl)piperazinyl)ethyl)amine]", "values": [{"measurement": "Ki", "setting": "[1]", "result": "> 100", "unit": "nM"}]}, {"compound": "c1cnc(N2CCN(CCNc3ccc4ccccc4n3)CC2)nc1", "note": "[Compound 1, (2-(4-pyrimidin-2-ylpiperazinyl)ethyl)-2-quinolylamine]", "values": [{"measurement": "Ki", "setting": "[1]", "result": 2720, "unit": "nM"}, {"measurement": "M1", "setting": "[3]", "result": 264, "unit": "nM"}, {"measurement": "M2", "setting": "[4]", "result": 299, "unit": "nM"}]}, {"compound": "(4methyl(2-quinolyl))(2-(4-pyrimidin-2-ylpiperazinyl)ethyl)amine hydrobromide [Compound 11]", "values": [{"measurement": "Ki", "setting": "[2]", "result": 10, "unit": "nM"}, {"measurement": "M1", "setting": "[3]", "result": 178, "unit": "nM"}, {"measurement": "M2", "setting": "[4]", "result": 246, "unit": "nM"}]}, {"compound": "Fc1cnc(N2CCN(CCNC3=Nc4ccccc4CC3)CC2)nc1", "note": "[Compound 3, 2-3,4-dihydroquinolyl(2-(4-(5-fluoropyrimidin-2-yl)piperazinyl)ethyl)amine]", "values": [{"measurement": "M1", "setting": "[3]", "result": 128, "unit": "nM"}, {"measurement": "M2", "setting": "[4]", "result": 144, "unit": "nM"}]}, {"compound": "OC1(c2ccccc2)CCN(CCCNC2=Nc3ccccc3CC2)CC1", "note": "(as salt: hydrobromid)", "values": [{"measurement": "melting point", "result": 247, "unit": "°C"}]}, {"compound": "(4-methyl(2-quinolyl))(3-(4-(pyrimidin-2-yl)piperazinyl)propyl)amine [Compound 22]", "values": [{"measurement": "Ki", "setting": "[1]", "result": 3300, "unit": "nM"}, {"measurement": "Ki", "setting": "[2]", "result": 10, "unit": "nM"}]}]}
